The source of these data is US20220280661A1, “GLUCOCORTICOID RECEPTOR RADIOLIGANDS AND METHODS FOR THEIR PREPARATION AND USE” (The Regents of the University of California, priority 2019, published 2022).

For series [1] the following is noted: blood collected 30 minutes post injection.
Method: Serum Stability Studies. Mice were euthanized, received radiotracer (30 MBq in 100-150 μL formulation) via tail injection, and dissected at dedicated time points post injection. The blood was collected and an aliquot (50 uL) was mixed with CH3CN (50 uL). The serum proteins were precipitated out and followed by a centrifugation (10000 rpm for 5 min). The cleared supernatant (50 uL) was collected and further analyzed by RAD-iTLC.
To confirm stability, blood was collected at 30 minutes post injection, a time point after which specific binding in vivo with (±)—^18F-YJH08 occurred.
The target of series [2] is T1, PR (Homo sapiens, UniProt P06401).
T1 construct: MCF7 (PR, ER); endogenous in cells; host or cells: MCF7
T1 sequence (P06401 1-933): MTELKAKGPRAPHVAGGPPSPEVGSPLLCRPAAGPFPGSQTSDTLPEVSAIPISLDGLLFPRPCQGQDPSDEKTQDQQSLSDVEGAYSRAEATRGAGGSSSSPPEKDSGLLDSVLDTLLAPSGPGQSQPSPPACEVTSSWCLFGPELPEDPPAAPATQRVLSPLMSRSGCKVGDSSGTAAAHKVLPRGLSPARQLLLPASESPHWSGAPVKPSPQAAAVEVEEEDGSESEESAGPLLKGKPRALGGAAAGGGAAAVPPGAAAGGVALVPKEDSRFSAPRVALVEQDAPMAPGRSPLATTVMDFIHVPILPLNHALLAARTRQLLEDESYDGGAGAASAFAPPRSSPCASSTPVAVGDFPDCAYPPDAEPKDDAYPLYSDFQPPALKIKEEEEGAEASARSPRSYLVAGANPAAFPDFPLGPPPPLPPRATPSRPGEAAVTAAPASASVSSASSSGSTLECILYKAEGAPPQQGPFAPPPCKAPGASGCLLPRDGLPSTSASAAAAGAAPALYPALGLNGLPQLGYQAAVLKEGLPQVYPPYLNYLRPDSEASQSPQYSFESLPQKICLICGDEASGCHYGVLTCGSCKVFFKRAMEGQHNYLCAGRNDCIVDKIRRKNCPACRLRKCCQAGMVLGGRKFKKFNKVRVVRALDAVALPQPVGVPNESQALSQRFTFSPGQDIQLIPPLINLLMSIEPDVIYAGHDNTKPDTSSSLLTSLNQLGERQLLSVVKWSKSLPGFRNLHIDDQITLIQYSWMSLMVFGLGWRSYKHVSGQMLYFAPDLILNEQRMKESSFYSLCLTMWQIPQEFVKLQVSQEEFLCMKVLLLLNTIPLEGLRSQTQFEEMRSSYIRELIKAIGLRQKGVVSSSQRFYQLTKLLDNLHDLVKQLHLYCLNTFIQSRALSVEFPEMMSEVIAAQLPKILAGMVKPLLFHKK
In words: 3H-ligand displacement assay on cells, PR (MCF7). Format: binding. As for the experimental part: The affinity of YJH08 for GR and the other type 1 subfamily 3 nuclear hormone receptors was evaluated using ^3H-ligand displacement assays on cells. The Kd for subfamily 3 class C nuclear hormone receptors was determined on cells by displacing ^3H-steroidal agonists for the respective receptor. […] The Kd was determined using the following cell lines: DU145 (GR), LNCaP-AR (AR), MCF7 (PR, ER), and HEK293 transiently overexpressing full length human MR.
The cold ligands and ^3H-steroids were co-incubated on cells in PBS at room temperature for one hour. Following incubation, the cells were washed twice with ice cold PBS and the unbound activity was retained for analysis. The cells were lysed with 1 mL of 1M NaOH and collected. Bound and unbound fractions were counted in a liquid scintillation counter and expressed as a percentage of the total activity added per equal relative number of cells. […] These experiments were performed at three concentrations of experimental ligand (1 pM, 100 nM and 10 μM), and a linear extrapolation was used to subtract the non-specific component of binding from each treatment condition. The specific binding component was plotted against the log of the competing ligand and curve fit using a non-linear regression algorithm with PRISM software.

`CC1=CC(C)(C)Nc2ccc3c(c21)C(Cc1ccc(F)cc1)Oc1cccc(O[11CH3])c1-3` (racemic) [(±)-^11C-YJH08]: the “radiotracer stable in blood (ITLC)” value in series [1] was > 90%. Usually Kd stands for the equilibrium constant for the complex coming apart. Lower therefore signals tighter binding. `COc1cccc2c1-c1ccc3c(c1C(Cc1ccc(F)cc1)O2)C(C)=CC(C)(C)N3` (racemic) [YJH08, 5-(4-fluorobenzyl)-10-methoxy-2,2,4-trimethyl-2,5-dihydro-1H-chromeno[3,4-f]quinoline]: binding in series [2] was put at a Kd of 555 nM.
